Assay results published in US8586542B2, “Small molecule apoptosis promoters” (Joyant Pharmaceuticals, Inc., priority 2006, dated 2013).
Where two headings read alike, the source gives them in different places. Blank lines part the entries; values can stand above or below the compound they belong to.

How the values were obtained:
HCC461 cells = assay: Cell viability assay in HCC461 cells (WST-1); type: cell-based; details: read-out: HCC461 cell
Protocol: HCC461 cells plated in 96 well plates at 5×10^4/ml cell density are treated with 50× synthetic Smac mimetic compounds (final concentration range between 30 uM and 0.001 uM). After 48 hrs incubation at 37° C. and 5% CO2, viability of the cells are measured using Cell Proliferation Reagent WST-1 assay kit (Roche Cat #11 644 807 001).
The tetrazolium salts are cleaved to formazan by cellular enzymes. An expansion in the number of viable cells results in an increase in the overall activity of mitochondrial dehydrogenases in the samples. This augmentation in the enzyme activity leads to an increase in the amount of formazan dye formed, which directly correlates to the number of metabolically active cells in the culture. Quantification of the formazan dye produced by metabolically active cells by using a microplate (ELISA) reader at 420-480 nm.

Caspase3 in Hela S100 = assay: In-vitro caspase-3 activation assay in Hela S100 extract; type: biochemical; details: 100 nM compound, Hela S100, 1 mM dATP; slope versus control (compound 1 = Caspase std.)
Protocol: Caspase3 in most cell extracts can be activated by the addition of 1 mM dATP through the mitochondria caspase pathway. […] Taking advantage of this feature, we use 100 nM of synthetic Smac mimetic compound to test its ability to eliminate IAPB in the Hela S100 and fully induce Caspase3 activity. The In Vitro Caspase3 assay is carried out at 30° C., incubating 100 nM compounds with 30 ug of Hela S100, 1 mM dATP, 10 uM Caspase3 fluorogenic substrate (Caspase3 Substrate II, Fluorogenic, #235425 from Calbiochem). The readout is caspase-3 activity represented by relative fluorogenic unit, which is recorded kinetically. The slope in linear region of the curve for each compound is calculated.
The ratio of each synthetic compound's slope versus the slope of control reflects in vitro caspase-3 activation ability of compounds.

[1] = molecular target: T1, truncated XIAP containing only BIR1, BIR2, and BIR3 domains (Homo sapiens, UniProt P98170); assay: Fluorescent polarization assay (Bir binding); details: competition with 2 nM fluorescein labeled AVPI peptide, room temperature, 1 hour
T1 construct: truncated XIAP containing only BIR1, BIR2, and BIR3 domains
Protocol: Increasing concentrations of Smac compounds are incubated with 2 nM of labeled peptide (fluorescein labeled 10 mer peptide with AVPI 4 amino acids at its N terminus-Alexa Fluor 488) and truncated XIAP containing only BIR1, BIR2, and BIR3 domains at room temperature for 1 hour. Fluorescence reading, indicative of the bound portion of the labeled peptide, is measured in milipolarization units (mP). The more compound added, less fluorescein labeled peptide bind to the protein due to the competitive binding and less fluorescence signal is released.
Based on this principle, we obtain the Ki value that evaluates compound's binding affinity.

Wap-ras tumors = assay: In vivo therapy in the WAP-RAS transgenic model; set-up: species or system mice; details: mimetic 20 mpk po; Paclitaxel 5 mpk ip
Protocol: Mimetic and Paclitaxel combination efficacy is also evaluated in the Wap-ras transgenic model.
Mimetics (20 mpk/dosing po) are dissolved in 20% hydroxyl-propyl-betacyclodexatrin (Vehicle I). 0.2 ml of mimetic solution is the oral dosing volume. Paclitaxel (5 mpk/dosing ip) is dissolved in a diluted ethanol/cremophor EL solution (vehicle II) and the i.p. dosing volume for paclitaxel is 0.1 ml.
The mice are weighed, randomized, and ear-marked on Day 0. Mimetic treatment and Vehicle I treatment is begun on Day 1 and continued every 12 hours until Day 21. Paclitaxel and Vehicle II treatments are started on Day 4 and continued daily on Day 5, 6, and 7.

[2] = HCC461, 48 hrs incubation, WST-1 viability

T1 sequence (P98170 1-356 limits assumed): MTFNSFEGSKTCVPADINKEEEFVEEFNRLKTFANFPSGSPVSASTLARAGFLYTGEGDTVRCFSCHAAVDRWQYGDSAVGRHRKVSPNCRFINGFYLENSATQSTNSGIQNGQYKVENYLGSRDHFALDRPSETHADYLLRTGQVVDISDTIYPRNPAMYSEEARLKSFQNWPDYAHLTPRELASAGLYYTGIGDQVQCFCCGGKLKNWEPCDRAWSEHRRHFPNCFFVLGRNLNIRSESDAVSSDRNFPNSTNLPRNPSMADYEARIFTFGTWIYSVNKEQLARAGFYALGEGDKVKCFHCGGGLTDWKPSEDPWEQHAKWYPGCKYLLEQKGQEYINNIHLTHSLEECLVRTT

IC50 (HCC461 cells; [2]): 0.2 µM
Caspase % (Caspase3 in Hela S100): 59%
Bir binding [1]: 0.3 µM
Structure (SMILES): CC[C@H](NC)C(=O)N[C@H](C(=O)N1CCCC1)c1ccc(C#CCO[C@H](C)[C@H](NC(=O)[C@H](C)NC)C(=O)N2CCC[C@H]2C(=O)N[C@@H]2CCCc3ccccc32)cc1.Cl.Cl [Compound 37]

IC50 (HCC461 cells; [2]): 0.16 µM
Caspase % (Caspase3 in Hela S100): 102%
Bir binding [1]: 0.18 µM
Structure (SMILES): CC[C@H](NC)C(=O)N[C@H](C(=O)N1CCC[C@H]1C(=O)N[C@@H]1CCCc2ccccc21)c1ccc(C#CCO[C@H](C)[C@H](NC(=O)[C@H](C)NC)C(=O)N2CCC[C@H]2C(=O)N[C@@H]2CCCc3ccccc32)cc1.Cl.Cl [Compound 39]

IC50 (HCC461 cells; [2]): 0.69 µM
Caspase % (Caspase3 in Hela S100): 98%
Bir binding [1]: 0.136 µM
Structure (SMILES): CN[C@@H](C)C(=O)N[C@@H](Cc1cn(CCCn2cc(C[C@H](NC(=O)[C@H](C)NC)C(=O)N3CCC[C@H]3C(=O)N[C@@H]3CCCc4ccccc43)nn2)nn1)C(=O)N1CCC[C@H]1C(=O)N[C@@H]1CCCc2ccccc21.Cl.Cl [Compound 17]

IC50 (HCC461 cells; [2]): 0.1 µM
Caspase % (Caspase3 in Hela S100): 106%
Bir binding [1]: 0.235 µM
Structure (SMILES): CN[C@@H](C)C(=O)N[C@@H](CC#Cc1ccc([C@H](NC(=O)[C@H](C)NC)C(=O)N2CCC[C@H]2C(=O)N[C@@H]2CCCc3ccccc32)cc1)C(=O)N1CCC[C@H]1C(=O)N[C@@H]1CCCc2ccccc21.Cl.Cl [Compound 26]

IC50 (HCC461 cells; [2]): 0.002 µM
Caspase % (Caspase3 in Hela S100): 136%
Bir binding [1]: 0.15 µM
Structure (SMILES): CN[C@@H](C)C(=O)N[C@@H](Cc1ccc(OCCCCOc2ccc(C[C@H](NC(=O)[C@H](C)NC)C(=O)N3CCCC3C(=O)N[C@@H]3CCCc4ccccc43)cc2)cc1)C(=O)N1CCCC1C(=O)N[C@@H]1CCCc2ccccc21.Cl.Cl (stereo partly shown) [Compound 45]

Second part, the compound before the results:

Structure (SMILES): CNC(C)C(=O)N[C@@H](CC#CC#CC[C@H](NC(=O)[C@H](C)NC)C(=O)N1CCC[C@H]1C(=O)NC(c1ccccc1)c1ccccc1)C(=O)N1CCC[C@H]1C(=O)NC(c1ccccc1)c1ccccc1 (stereo partly shown) [Compound 3]
IC50 (HCC461 cells; [2]): 0.026 µM
Caspase % (Caspase3 in Hela S100): 48%
Bir binding [1]: 0.12 µM

Structure (SMILES): CC(=O)O[C@H]1C(=O)[C@@]2(C)[C@H]([C@H](OC(=O)c3ccccc3)[C@]3(O)C[C@H](OC(=O)[C@H](O)[C@@H](NC(=O)c4ccccc4)c4ccccc4)C(C)=C1C3(C)C)[C@]1(OC(C)=O)CO[C@@H]1C[C@@H]2O [Paclitaxel]
tumor response to treatment, single agent (Wap-ras tumors): do not respond

Structure (SMILES): CNC(C)C(=O)N[C@@H](CCCCCC[C@H](NC(=O)[C@H](C)NC)C(=O)N1CCC[C@H]1C(=O)NCc1ccccc1)C(=O)N1CCC[C@H]1C(=O)NCc1ccccc1 (stereo partly shown) [Compound 6]
IC50 (HCC461 cells; [2]): 2.1 µM
Caspase % (Caspase3 in Hela S100): 82%
Bir binding [1]: 0.2 µM

Structure (SMILES): CN[C@@H](C)C(=O)N[C@H](C(=O)N1CCCC1C(=O)N[C@@H]1CCCc2ccccc21)[C@@H](C)OCCCCCCO[C@H](C)[C@H](NC(=O)[C@H](C)NC)C(=O)N1CCC[C@H]1C(=O)N[C@@H]1CCCc2ccccc21.Cl.Cl (stereo partly shown) [Compound 14]
IC50 (HCC461 cells; [2]): 0.62 µM
Caspase % (Caspase3 in Hela S100): 104%
Bir binding [1]: 0.158 µM

Structure (SMILES): CNC(C)C(=O)N[C@@H](CCCCCC[C@H](NC(=O)[C@H](C)NC)C(=O)N1CCC[C@H]1C(=O)NC(c1ccccc1)c1ccccc1)C(=O)N1CCC[C@H]1C(=O)NC(c1ccccc1)c1ccccc1 (stereo partly shown) [Compound 4]
IC50 (HCC461 cells; [2]): 0.025 µM
Caspase % (Caspase3 in Hela S100): 55%
Bir binding [1]: 0.11 µM

Structure (SMILES): CN[C@@H](C)C(=O)N[C@@H](CCCCCC[C@H](NC(=O)[C@H](C)NC)C(=O)N1CCC[C@H]1C(=O)NC(C)c1ccccc1)C(=O)N1CCC[C@H]1C(=O)NC(C)c1ccccc1 (stereo partly shown) [Compound 8]
IC50 (HCC461 cells; [2]): 0.07 µM
Caspase % (Caspase3 in Hela S100): 93%
Bir binding [1]: 0.27 µM

Structure (SMILES): CC[C@H](NC)C(=O)N[C@@H](CC#CC#CC[C@H](NC(=O)[C@H](CC)NC)C(=O)N1CCC[C@H]1C(=O)N[C@@H]1CCCc2ccccc21)C(=O)N1CCC[C@H]1C(=O)N[C@@H]1CCCc2ccccc21 [Compound 9]
IC50 (HCC461 cells; [2]): 0.009 µM
Caspase % (Caspase3 in Hela S100): 108%
Bir binding [1]: 0.196 µM

Structure (SMILES): CN[C@@H](C)C(=O)N[C@@H](CCCCCC[C@H](NC(=O)[C@H](C)NC)C(=O)N1CCC[C@H]1C(=O)N[C@@H]1CCCc2ccccc21)C(=O)N1CCC[C@H]1C(=O)N[C@@H]1CCCc2ccccc21 [Compound 2]
IC50 (HCC461 cells; HCC461, 48 h): 0.01 µM
Caspase % (Caspase3 in Hela S100): 105%
Bir binding [1]: 0.15 µM

Structure (SMILES): CCC[C@H](NC)C(=O)N[C@@H](CC#CC#CC[C@H](NC(=O)[C@H](C)NC)C(=O)N1CCC[C@H]1C(=O)N[C@@H]1CCCc2ccccc21)C(=O)N1CCC[C@H]1C(=O)N[C@@H]1CCCc2ccccc21.Cl.Cl [Compound 15]
IC50 (HCC461 cells; [2]): 0.08 µM
Caspase % (Caspase3 in Hela S100): 87%
Bir binding [1]: 0.638 µM

Structure (SMILES): CN[C@@H](C)C(=O)N[C@@H](CC#CC#CC[C@H](NC(=O)[C@H](C)NC)C(=O)N1CCC[C@H]1C(=O)NC(C)c1ccccc1)C(=O)N1CCC[C@H]1C(=O)NC(C)c1ccccc1 (stereo partly shown) [Compound 7]
IC50 (HCC461 cells; [2]): 0.373 µM
Caspase % (Caspase3 in Hela S100): 101%
Bir binding [1]: 0.144 µM
